Experimental data reported in patent EP1401829B1, “NOVEL HETEROCYCLIC ANTIBACTERIAL COMPOUNDS” (Microbiotix, Inc., priority 2001, dated 2002).
Converted amounts (≈) assume the structure as drawn.

Columns and labels:
S.aureus (Smith) = assay: Minimal Inhibitory Concentration (MIC) determination, 96 well plates; assay type: cell-based, Staphylococcus aureus; conditions: Staphylococcus aureus; HBI medium, 16 to 18 hours at 37°C; read-out: MIC (µg/ml) S.aureus (Smith)
Experimental: (§1) The following methods were used to characterize representative compounds. Minimal Inhibitory Concentration (MIC) determinations. MIC values were determined in 96 well plates, with bacterial growth monitored at OD 600 nm in 200µl following an initial bacterial seeding at approximately 1x10^5 colony forming units (CFU)/ml. Each drug is evaluated at five concentrations, with five data points at each dilution. MIC values (µg/ml) were determined against actively growing cultures in Heart-Brain Infusion (HBI) medium. Cell growth in cultures supplemented with a test compound was calculated as a percent of control at OD 600 nm after 16 to 18 hours at 37°C. […] Polymerase IIIC (Pol IIIC) assay. DNA polymerase activity (or inhibition thereof) was measured in a 96-well plate format. B. subtilis Pol IIIC was isolated as described by Hammond and Brown (Protein Expr. Purif., 3: 65-70 (1992)). Each 25 µl assay contained 30 mM Tris, pH 7.5, 10 mM magnesium acetate, 4 mM dithiothreitol, 20% glycerol, with 25 µM dATP, dCTP, dGTP and 10 µM dTTP (^3H-labelled at 1.44 Ci/mmole) and 0.4 mg/ml activated calf thymus DNA as substrates, as described previously (see Barnes et al, op. cit). Assays were initiated by the addition of 0.025 to 0.06 units of enzyme 1 unit is the amount required to incorporate 250 pmoles of [^3H] dTMP in a standard assay), incubated for 10 minutes at 30°C and terminated by the addition of 200 µl of cold 10% trichloroacetic acid (TCA),10 mM sodium pyrophosphate. Precipitated labeled DNA was collected on glass fiber filter plates, washed, dried, and counted in a liquid scintillation counter. Determination of Ki values. DNA polymerase activity was measured in a 96-well plate format in the absence of dGTP or dATP, depending on the structure of the test compound. Each 25 µl assay contained 30 mM Tris, pH 7.5, 10 mM magnesium acetate, 4 mM dithiothreitol, 20% glycerol, with 25 µM dATP, dCTP, and 10 µM dTTP (^3H-labelled at 1.44 Ci/mmole) and 0.4 mg/ml activated calf thymus DNA as substrates, as described previously. […] Assays were initiated by the addition of 0.025 to 0.06 units of enzyme (1 unit is the amount required to incorporate 250 pmoles of [^3H] dTMP in a standard assay), incubated for 10 minutes at 30 °C and terminated by the addition of 200 µl of cold 10% trichloroacetic acid, 10 mM sodium pyrophosphate. Precipitated labeled DNA was collected on glass fiber filter plates, washed, dried, and counted in a liquid scintillation counter. Ki is the concentration of test compound that reduces the control polymerase IIIC activity by 50 percent.
(§2) MIC values were determined for the Gram positive bacteria Bacillus subtilis, Staphylococcus aureus (two strains), Enterococcus fecalis, Enterococcus fecium, and for the Gram negative bacterium Escherichia coli.

E. coli = assay: as above; assay type: cell-based, Escherichia coli; conditions: Escherichia coli; HBI medium, 16 to 18 hours at 37°C; read-out: MIC (µg/ml) E. coli
Experimental: (§3) The following methods were used to characterize representative compounds. Minimal Inhibitory Concentration (MIC) determinations. MIC values were determined in 96 well plates, with bacterial growth monitored at OD 600 nm in 200µl following an initial bacterial seeding at approximately 1x10^5 colony forming units (CFU)/ml. Each drug is evaluated at five concentrations, with five data points at each dilution. MIC values (µg/ml) were determined against actively growing cultures in Heart-Brain Infusion (HBI) medium. Cell growth in cultures supplemented with a test compound was calculated as a percent of control at OD 600 nm after 16 to 18 hours at 37°C. This plate format conserves test compound and provides precise, quantitative data with low standard deviation determinations. Polymerase IIIC (Pol IIIC) assay. DNA polymerase activity (or inhibition thereof) was measured in a 96-well plate format. B. subtilis Pol IIIC was isolated as described by Hammond and Brown (Protein Expr. Purif., 3: 65-70 (1992)). Each 25 µl assay contained 30 mM Tris, pH 7.5, 10 mM magnesium acetate, 4 mM dithiothreitol, 20% glycerol, with 25 µM dATP, dCTP, dGTP and 10 µM dTTP (^3H-labelled at 1.44 Ci/mmole) and 0.4 mg/ml activated calf thymus DNA as substrates, as described previously (see Barnes et al, op. cit). Assays were initiated by the addition of 0.025 to 0.06 units of enzyme 1 unit is the amount required to incorporate 250 pmoles of [^3H] dTMP in a standard assay), incubated for 10 minutes at 30°C and terminated by the addition of 200 µl of cold 10% trichloroacetic acid (TCA),10 mM sodium pyrophosphate. Precipitated labeled DNA was collected on glass fiber filter plates, washed, dried, and counted in a liquid scintillation counter. Determination of Ki values. DNA polymerase activity was measured in a 96-well plate format in the absence of dGTP or dATP, depending on the structure of the test compound. Each 25 µl assay contained 30 mM Tris, pH 7.5, 10 mM magnesium acetate, 4 mM dithiothreitol, 20% glycerol, with 25 µM dATP, dCTP, and 10 µM dTTP (^3H-labelled at 1.44 Ci/mmole) and 0.4 mg/ml activated calf thymus DNA as substrates, as described previously. To each well were added 2 µl of compound solution to give final concentrations ranging from 20 - 0.027 µg/ml in the assay. Assays were initiated by the addition of 0.025 to 0.06 units of enzyme (1 unit is the amount required to incorporate 250 pmoles of [^3H] dTMP in a standard assay), incubated for 10 minutes at 30 °C and terminated by the addition of 200 µl of cold 10% trichloroacetic acid, 10 mM sodium pyrophosphate. Precipitated labeled DNA was collected on glass fiber filter plates, washed, dried, and counted in a liquid scintillation counter. Ki is the concentration of test compound that reduces the control polymerase IIIC activity by 50 percent.
as §2

B. subtilis = assay: as above; assay type: cell-based, Bacillus subtilis; conditions: Bacillus subtilis; HBI medium, 16 to 18 hours at 37°C; read-out: MIC (µg/ml) B. subtilis
Experimental: as §1, §2

E. fecium = assay: as above; assay type: cell-based, Enterococcus fecium; conditions: Enterococcus; HBI medium, 16 to 18 hours at 37°C; read-out: MIC (µg/ml) E. fecium
Experimental: as §1, §2

E. fecalis = assay: as above; assay type: cell-based, Enterococcus fecalis; conditions: Enterococcus; HBI medium, 16 to 18 hours at 37°C; read-out: MIC (µg/ml) E. fecalis
Experimental: as §1, §2

S. aureus = assay: as above; assay type: cell-based, Staphylococcus aureus; conditions: Staphylococcus aureus; HBI medium, 16 to 18 hours at 37°C; read-out: MIC (µg/ml) S. aureus
Experimental: as §3, §2

B. subtilis Pol IIIC = target: T1, B. subtilis Pol IIIC (Bacillus subtilis, UniProt P13267); assay: Polymerase IIIC (Pol IIIC) assay, determination of Ki values; assay type: biochemical; conditions: Ki (µM) Pol IIIC, assay in absence of dGTP or dATP; Ki is the concentration that reduces control polymerase IIIC activity by 50 percent
T1 construct: made in house
Experimental: as §1

T1 sequence (P13267 whole entry): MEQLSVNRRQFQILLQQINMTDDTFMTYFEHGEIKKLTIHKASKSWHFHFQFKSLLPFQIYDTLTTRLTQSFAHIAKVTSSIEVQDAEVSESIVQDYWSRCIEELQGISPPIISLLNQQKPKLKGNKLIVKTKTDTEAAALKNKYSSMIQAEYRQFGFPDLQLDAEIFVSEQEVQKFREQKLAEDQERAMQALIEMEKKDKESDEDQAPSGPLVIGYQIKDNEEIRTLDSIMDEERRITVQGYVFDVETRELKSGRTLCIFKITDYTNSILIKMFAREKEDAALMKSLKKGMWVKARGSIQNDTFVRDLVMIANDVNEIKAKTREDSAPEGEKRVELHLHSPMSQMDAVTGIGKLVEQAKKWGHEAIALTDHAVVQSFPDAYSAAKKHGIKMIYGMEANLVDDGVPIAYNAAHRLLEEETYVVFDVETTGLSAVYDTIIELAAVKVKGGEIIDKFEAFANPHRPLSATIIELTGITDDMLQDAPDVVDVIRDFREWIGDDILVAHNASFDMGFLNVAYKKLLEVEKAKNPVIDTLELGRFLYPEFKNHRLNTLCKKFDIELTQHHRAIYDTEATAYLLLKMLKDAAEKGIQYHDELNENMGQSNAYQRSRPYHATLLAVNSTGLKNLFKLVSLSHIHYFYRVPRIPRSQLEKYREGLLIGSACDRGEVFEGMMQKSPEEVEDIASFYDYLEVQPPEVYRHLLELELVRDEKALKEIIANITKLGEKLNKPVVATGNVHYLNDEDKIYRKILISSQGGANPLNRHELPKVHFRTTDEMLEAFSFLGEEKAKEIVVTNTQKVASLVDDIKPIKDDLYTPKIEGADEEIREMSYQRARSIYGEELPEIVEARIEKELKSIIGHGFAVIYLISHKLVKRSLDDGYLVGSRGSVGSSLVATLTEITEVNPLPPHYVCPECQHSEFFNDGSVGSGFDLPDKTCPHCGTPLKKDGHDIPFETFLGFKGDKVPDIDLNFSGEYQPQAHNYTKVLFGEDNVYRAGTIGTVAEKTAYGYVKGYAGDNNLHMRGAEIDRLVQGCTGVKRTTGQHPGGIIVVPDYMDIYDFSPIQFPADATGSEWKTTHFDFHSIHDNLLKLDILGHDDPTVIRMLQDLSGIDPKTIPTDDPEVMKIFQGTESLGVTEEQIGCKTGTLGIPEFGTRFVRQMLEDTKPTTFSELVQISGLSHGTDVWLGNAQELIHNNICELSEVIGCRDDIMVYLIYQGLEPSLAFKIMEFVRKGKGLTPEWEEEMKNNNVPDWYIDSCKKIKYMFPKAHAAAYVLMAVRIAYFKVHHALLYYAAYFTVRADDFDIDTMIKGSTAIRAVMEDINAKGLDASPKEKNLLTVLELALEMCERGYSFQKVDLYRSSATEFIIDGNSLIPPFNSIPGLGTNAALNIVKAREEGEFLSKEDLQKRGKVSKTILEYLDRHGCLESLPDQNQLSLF

SMILES | MIC (S.aureus (Smith)) | MIC (E. coli) | MIC (B. subtilis) | MIC (E. fecium) | MIC (E. fecalis) | MIC (S. aureus) | Ki (B. subtilis Pol IIIC)
CCc1cc(Nc2cc(=O)n(CCCCN3CCN(c4cc5c(cc4F)c(=O)c(C(=O)O)cn5C4CC4)C[C@H]3C)c(=O)[nH]2)ccc1C [Compound 95, (R)-3-{4-[1-(1-cyclopropyl-3-carboxy-4-oxo-6-fluoro-7-quinolyl)-3-methyl-4-piperazinyl]butyl}-6-(3-ethyl-4-methylanilino)uracil] | 0.625 µg/mL (≈ 0.969 µM) | 10 µg/mL (≈ 15.5 µM) | 0.235 µg/mL (≈ 0.364 µM) | 0.625 µg/mL (≈ 0.969 µM) | 0.625 µg/mL (≈ 0.969 µM) | 1.25 µg/mL (≈ 1.94 µM) | 0.012 µM
CCc1cc(Nc2cc(=O)n(CCCCCN3CCOC4CN(c5cc6c(cc5F)c(=O)c(C(=O)O)cn6C5CC5)CC43)c(=O)[nH]2)ccc1C (stereo not shown) [Compound 84, 3-{5-[1-(1-cyclopropyl-3-carboxy-4-oxo-6-fluoro-7-quinolyl)-3-(5-oxa-1,3-diazabicyclononyl)]pentyl}-6-(3-ethyl-4-methylanilino)uracil] | 0.625 µg/mL (≈ 0.91 µM) | > 80 µg/mL | 0.313 µg/mL (≈ 0.456 µM) | 25 µg/mL (≈ 36.4 µM) | 2.5 µg/mL (≈ 3.64 µM) | 1.25 µg/mL (≈ 1.82 µM) | 0.033 µM
CCc1cc(Nc2cc(=O)n(CCCCN3CCN(c4c(F)cc5c(=O)c(C(=O)O)cn(C6CC6)c5c4F)C[C@H]3C)c(=O)[nH]2)ccc1C [Compound 72, (R)-3-{4-[1-(1-cyclopropyl-3-carboxy-4-oxo-6,8-difluoro-7-quinolyl)-3-methyl-4-piperazinyl]butyl}-6-(3-ethyl-4-methylanilino)uracil] | 0.625 µg/mL (≈ 0.943 µM) | 20 µg/mL (≈ 30.2 µM) | 0.156 µg/mL (≈ 0.235 µM) | 1.25 µg/mL (≈ 1.89 µM) | 1.25 µg/mL (≈ 1.89 µM) | 0.625 µg/mL (≈ 0.943 µM) | 0.004 µM
Cc1ccc(Nc2cc(=O)n(CCCCN3CCN(c4cc5c(cc4F)c(=O)c(C(=O)O)cn5C4CC4)C[C@@H]3C)c(=O)[nH]2)cc1C [Compound 97, (S)-3-{4-[1-(1-cyclopropyl-3-carboxy-4-oxo-6-fluoro-7-quinolyl)-3-methyl-4-piperazinyl]butyl}-6-(3,4-dimethylanilino)uracil] | 0.625 µg/mL (≈ 0.991 µM) | 40 µg/mL (≈ 63.4 µM) | 0.235 µg/mL (≈ 0.373 µM) | 1.25 µg/mL (≈ 1.98 µM) | 0.625 µg/mL (≈ 0.991 µM) | 1.25 µg/mL (≈ 1.98 µM) | 0.037 µM
CCc1cc(Nc2cc(=O)n(CCCCN3CCN(c4cc5c(cc4F)c(=O)c(C(=O)O)cn5CC)CC3)c(=O)[nH]2)ccc1C [Compound 1, 3-{4-[1-(1-ethyl-3-carboxy-4-oxo-6-fluoro-7-quinolyl)-4-piperazinyl]butyl}-6-(3-ethyl-4-methylanilino)uracil] | 0.625 µg/mL (≈ 1.01 µM) | > 20 µg/mL | 0.156 µg/mL (≈ 0.252 µM) | 1.25 µg/mL (≈ 2.02 µM) | 1.25 µg/mL (≈ 2.02 µM) | 0.625 µg/mL (≈ 1.01 µM) | 0.024 µM
CCc1cc(Nc2cc(=O)n(CCCCCN3CCN(c4cc5c(cc4F)c(=O)c(C(=O)O)cn5C4CC4)CC3)c(=O)[nH]2)ccc1C [Compound 15, 3-{5-[1-(1-cyclopropyl-3-carboxy-4-oxo-6-fluoro-7-quinolyl)-4-piperazinyl]pentyl}-6-(3-ethyl-4-methylanilino)uracil] | 0.313 µg/mL (≈ 0.485 µM) | 5 µg/mL (≈ 7.75 µM) | 0.156 µg/mL (≈ 0.242 µM) | 1.25 µg/mL (≈ 1.94 µM) | 0.625 µg/mL (≈ 0.969 µM) | 0.625 µg/mL (≈ 0.969 µM) | 0.03 µM
CCc1cc(Nc2cc(=O)n(CCCCN3CCN(c4c(F)cc5c(=O)c(C(=O)O)cn(C6CC6)c5c4F)C[C@@H]3C)c(=O)[nH]2)ccc1C [Compound 71, (S)-3-{4-[1-(1-cyclopropyl-3-carboxy-4-oxo-6,8-difluoro-7-quinolyl)-3-methyl-4-piperazinyl]butyl}-6-(3-ethyl-4-methylanilino)uracil] | 0.156 µg/mL (≈ 0.235 µM) | 5 µg/mL (≈ 7.54 µM) | 0.156 µg/mL (≈ 0.235 µM) | 1.87 µg/mL (≈ 2.82 µM) | 1.25 µg/mL (≈ 1.89 µM) | 0.313 µg/mL (≈ 0.472 µM) | 0.007 µM
Cc1ccc(Nc2cc(=O)n(CCCCN3CCN(c4cc5c(cc4F)c(=O)c(C(=O)O)cn5C4CC4)C[C@H]3C)c(=O)[nH]2)cc1C [Compound 96, (R)-3-{4-[1-(1-cyclopropyl-3-carboxy-4-oxo-6-fluoro-7-quinolyl)-3-methyl-4-piperazinyl]butyl}-6-(3,4-dimethylanilino)uracil] | 0.313 µg/mL (≈ 0.496 µM) | 5 µg/mL (≈ 7.93 µM) | 0.156 µg/mL (≈ 0.247 µM) | 0.625 µg/mL (≈ 0.991 µM) | 0.625 µg/mL (≈ 0.991 µM) | 0.625 µg/mL (≈ 0.991 µM) | 0.019 µM
CCc1cc(Nc2cc(=O)n(CCCCCN3CCOC4CN(c5c(F)cc6c(=O)c(C(=O)O)cn(CC)c6c5F)CC43)c(=O)[nH]2)ccc1C (stereo not shown) [Compound 85, 3-{5-[1-(1-ethyl-3-carboxy4-oxo-6,8-difluoro-7-quinolyl)-3-(5-oxa-1,3-diazabicyclononyl)]pentyl)-6-(3-ethyl-4-methylanilino)uracil] | 6.1 µg/mL (≈ 8.81 µM) | > 80 µg/mL | 0.313 µg/mL (≈ 0.452 µM) | 12.5 µg/mL (≈ 18 µM) | 7.5 µg/mL (≈ 10.8 µM) | 5 µg/mL (≈ 7.22 µM) | 0.059 µM
CCc1cc(Nc2ccc(CCCCN3CCN(c4cc5c(cc4F)c(=O)c(C(=O)O)cn5CC)CC3)c(=O)[nH]2)ccc1C [Compound 78, 3-{4-[1-(1-ethyl-3-carboxy-4-oxo-6-fluoro-7-quinolyl)-4-piperazinyl]butyl}-6-(3-ethyl-4-methylanilino)-2-pyridone] | 2.5 µg/mL (≈ 4.15 µM) | > 80 µg/mL | 0.625 µg/mL (≈ 1.04 µM) | 5 µg/mL (≈ 8.31 µM) | 5 µg/mL (≈ 8.31 µM) | 1.25 µg/mL (≈ 2.08 µM) | 2.4 µM
